Laboratory results from ChEMBL document CHEMBL6127028, “Design and synthesis of TH19P01-Camptothecin based hybrid peptides inducing effective anticancer responses on sortilin positive cancer cells” (Bioorg Med Chem, 2024).
Values after ≈ are worked out from the molar mass of the structure shown. Active and inactive are the calls of the source. The rule behind the calls is not given here. Where a SMILES comes first, the peptide text is derived from it. [ ]: non-standard residue; d: D form. The star is where a group is joined. Succinyl(20-O-(20S)-CPT) = CC[C@@]1(OC(=O)CCC(=O)*)C(=O)OCc2c1cc1n(c2=O)Cc2cc3ccccc3nc2-1; Dnp = O=[N+]([O-])c1ccc(*)c([N+](=O)[O-])c1; DEAC = CCN(CC)c1ccc2cc(C(=O)*)c(=O)oc2c1; Nle = CCCC[C@H](N)C(=O)O

Columns and labels:
[1] = Drug uptake in human MDA-MB-231 cells assessed as increase in blue fluorescence intensity at 10 uM by SYBR Green I staining based live cell imaging analysis; type: ADME; details: mda-mb-231, 10 µM, TDE = time-dependent effect, time 2-12 hrs
MDA-MB-231 [2] = test: Cytostatic activity against human MDA-MB-231 cells overexpressing SORT1 assessed as reduction in cell viability incubated for 72 hrs by MTT assay; type: functional, cell-based; details: MDA-MB-231, 72 h
[3] = Prodrug conversion in 5% human serum assessed as CPT release by measuring increase in fluorescence intensity at 50 uM measured for 6 days by fluorescence spectrophotometric analysis; type: ADME, cell-free; details: 144 h, time 6 day
[4] = Prodrug conversion in 5% human serum assessed as CPT release by measuring increase in fluorescence intensity at 50 uM measured at 0 hrs by fluorescence spectrophotometric analysis; type: ADME, cell-free
[5] = Prodrug conversion in human MDA-MB-231 cells overexpressing SORT1 assessed as CPT release by measuring increase in fluorescence intensity at 1.5 uM measured for 120 hrs by fluorescence based analysis; type: ADME, cell-based; details: mda-mb-231, 120 h
[6] = Aqueous solubility of the compound in water by UV/Vis spectrophotometry relative to free camptothecin; type: physicochemical; details: buffer
4T1 [7] = test: Cytostatic activity against mouse 4T1 cells expressing low SORT1 assessed as reduction in cell viability incubated for 72 hrs by MTT assay; type: functional, cell-based; details: 4T1, 72 h
[8] = Induction of hemolysis in mouse erythrocytes assessed as hemolysis rate at 0.3 uM incubated for 4 hrs; type: toxicity, cell-based, Erythrocyte; details: read-out: Activity
MDA-MB-231 [9] = test: Anti-proliferative activity against human MDA-MB-231 cells assessed as inhibition of cell proliferation at 1XIC50 measured at <36 hrs by time-kill curve analysis; type: functional
[10] = Cytostatic activity against mouse L929 cells assessed as reduction in cell viability incubated for 72 hrs by MTT assay; type: toxicity, cell-based
4T1 [11] = test: Anti-migration activity against mouse 4T1 cells assessed as cell motility at 1.5 uM incubated for 2 hrs followed by PBS washing and incubation in complete medium for 24 hrs by wound healing assay (reference value: 68.9%); type: functional
[12] = Cytostatic activity against HEK293T cells assessed as reduction in cell viability incubated for 72 hrs by MTT assay; type: toxicity, cell-based, HEK-293T; details: human
MDA-MB-231 [13] = test: Anti-proliferative activity against human MDA-MB-231 cells assessed as inhibition of cell proliferation at 1XIC50 measured after 72 hrs by time-kill curve analysis; type: functional
[14] = Induction of hemolysis in mouse erythrocytes assessed as hemolysis rate at 30 uM incubated for 4 hrs; type: toxicity, cell-based, Erythrocyte; details: read-out: Activity
MDA-MB-231 [15] = test: Anti-migration activity against human MDA-MB-231 cells assessed as cell motility at 1.5 uM incubated for 2 hrs followed by PBS washing and incubation in complete medium for 24 hrs by wound healing assay (reference value: 55.3%); type: functional
MDA-MB-231 [16] = test: Anti-proliferative activity against human MDA-MB-231 cells assessed as inhibition of cell proliferation at 0.5XIC50 to 1XIC50 measured after 36 to 72 hrs by time-kill curve analysis; type: functional, cell-based; details: time 36-72 hrs
Erythrocyte [17] = test: Induction of hemolysis in mouse erythrocytes at 0.03 to 30 uM incubated for 4 hrs; type: toxicity, cell-based; details: dose 0.03-30 µM
[18] = Drug uptake in human MDA-MB-231 cells assessed as increase in blue fluorescence intensity at 10 uM measured after 2 to 12 hrs by SYBR Green I staining based live cell imaging analysis; type: ADME; details: mda-mb-231, 10 µM, time 2-12 hrs
MDA-MB-231 [19] = test: Anti-proliferative activity against human MDA-MB-231 cells assessed as inhibition of cell proliferation at 1.5 uM measured for 0 to 72 hrs by time-kill curve analysis; type: functional; details: time 0-72 hrs
[20] = Aqueous solubility of the compound in water by UV/Vis spectrophotometry; type: physicochemical
4T1 [21] = test: Anti-migration activity against mouse 4T1 cells at 1.5 uM incubated for 2 hrs in presence of TH19P01 followed by PBS washing and incubation in complete medium for 24 hrs by wound healing assay; type: functional, cell-based
MDA-MB-231 [22] = test: Cytostatic activity against human MDA-MB-231 cells overexpressing SORT1 assessed as reduction in cell viability incubated for 72 hrs in presence of TH19P01 by MTT assay; type: functional, cell-based; details: MDA-MB-231, 72 h
MDA-MB-231 [23] = test: Anti-proliferative activity against human MDA-MB-231 cells assessed as inhibition of cell proliferation at 1XIC50 measured after 72 hrs in presence of TH19P01 by time-kill curve analysis; type: functional
[24] = Drug uptake in human MDA-MB-231 cells assessed as increase in blue fluorescence intensity at 10 uM measured after 2 to 12 hrs in presence of TH19P01 by SYBR Green I staining based live cell imaging analysis; type: ADME; details: mda-mb-231, 10 µM, time 2-12 hrs
4T1 [25] = test: Cytostatic activity against mouse 4T1 cells expressing low SORT1 assessed as reduction in cell viability incubated for 72 hrs in presence of TH19P01 by MTT assay; type: functional, cell-based; details: 4T1, 72 h
MDA-MB-231 [26] = test: Anti-migration activity against human MDA-MB-231 cells assessed as cell motility at 1.5 uM incubated for 2 hrs in presence of TH19P01 followed by PBS washing and incubation in complete medium for 24 hrs by wound healing assay (reference value: 55.3%); type: functional
Erythrocyte [27] = test: Induction of hemolysis in mouse erythrocytes at >3 uM incubated for 4 hrs in presence of TH19P01; type: toxicity, cell-based
MDA-MB-231 [28] = test: Anti-proliferative activity against human MDA-MB-231 cells assessed as inhibition of cell proliferation at 1XIC50 measured for 0 to 72 hrs by time-kill curve analysis; type: functional, cell-based; details: time 0-72 hrs
MDA-MB-231 [29] = test: Anti-proliferative activity against human MDA-MB-231 cells assessed as inhibition of cell proliferation at 1XIC50 measured for 0 to 72 hrs in presence of TH19P01 by time-kill curve analysis; type: functional, cell-based; details: time 0-72 hrs

Structure (SMILES) | IC50 (MDA-MB-231 [2]) [nM] | IC50 (4T1 [7]) [nM] | IC50 at 72 h [10] [nM] | Activity (4T1 [11]) [%] | IC50 at 72 h [12] [nM] | inhibition (INH) (MDA-MB-231 [13]) [%] | Activity (MDA-MB-231 [15]) [%] | Activity (Erythrocyte [17]) | other results
CCCC[C@H](NC(=O)[C@H](CC(N)=O)NC(=O)[C@H](CCCNC(=N)N)NC(=O)[C@@H](NC(=O)CNC(=O)[C@H](C)NC(=O)[C@H](CCCCNC(=O)c1cc2ccc(N(CC)CC)cc2oc1=O)NC(=O)[C@H](C)NC(=O)[C@H](CCCNC(=N)N)NC(=O)[C@@H](NC(=O)CNC(C)=O)C(C)C)C(C)C)C(=O)N[C@@H](Cc1ccccc1)C(=O)N[C@@H](CCCCNC(C)=O)C(=O)N[C@@H](CO)C(=O)N[C@@H](CCC(=O)O)C(=O)N[C@@H](CO)C(=O)N[C@@H](Cc1ccc(O)cc1)C(N)=O (Ac-GVRAK(DEAC)AGVRN[Nle]FK(Ac)SESY-NH2) | > 100000 |  |  |  |  |  |  |  | Drug uptake [1]: Tde
CCCC[C@H](NC(=O)[C@H](CC(N)=O)NC(=O)[C@H](CCCNC(=N)N)NC(=O)[C@@H](NC(=O)CNC(=O)[C@H](C)NC(=O)[C@H](CCCCNC(=O)CCC(=O)O[C@]1(CC)C(=O)OCc2c1cc1n(c2=O)Cc2cc3ccccc3nc2-1)NC(=O)[C@H](CCCCNc1ccc([N+](=O)[O-])cc1[N+](=O)[O-])NC(=O)[C@H](C)NC(=O)[C@H](CCCNC(=N)N)NC(=O)[C@@H](NC(=O)CNC(C)=O)C(C)C)C(C)C)C(=O)N[C@@H](Cc1ccccc1)C(=O)N[C@@H](CCCCNc1ccc([N+](=O)[O-])cc1[N+](=O)[O-])C(=O)N[C@@H](CCCCNC(=O)CCC(=O)O[C@]1(CC)C(=O)OCc2c1cc1n(c2=O)Cc2cc3ccccc3nc2-1)C(=O)N[C@@H](CO)C(=O)N[C@@H](CCC(=O)O)C(=O)N[C@@H](CO)C(=O)N[C@@H](Cc1ccc(O)cc1)C(N)=O (Ac-GVRAK(Dnp)K(Succinyl(20-O-(20S)-CPT))AGVRN[Nle]FK(Dnp)K(Succinyl(20-O-(20S)-CPT))SESY-NH2) | 1520 |  |  |  |  |  |  |  | Drug metabolism [3]: Metabolite_Detected; Drug metabolism [4]: Metabolite_Notdetected; Drug metabolism [5]: Metabolite_Detected
CCCC[C@H](NC(=O)[C@H](CC(N)=O)NC(=O)[C@H](CCCNC(=N)N)NC(=O)[C@@H](NC(=O)CNC(=O)[C@H](C)NC(=O)[C@H](CCCCNC(=O)CCC(=O)O[C@]1(CC)C(=O)OCc2c1cc1n(c2=O)Cc2cc3ccccc3nc2-1)NC(=O)[C@H](C)NC(=O)[C@H](CCCNC(=N)N)NC(=O)[C@@H](NC(=O)CNC(C)=O)C(C)C)C(C)C)C(=O)N[C@@H](Cc1ccccc1)C(=O)N[C@@H](CCCCNC(=O)CCC(=O)O[C@]1(CC)C(=O)OCc2c1cc1n(c2=O)Cc2cc3ccccc3nc2-1)C(=O)N[C@@H](CO)C(=O)N[C@@H](CCC(=O)O)C(=O)N[C@@H](CO)C(=O)N[C@@H](Cc1ccc(O)cc1)C(N)=O (Ac-GVRAK(Succinyl(20-O-(20S)-CPT))AGVRN[Nle]FK(Succinyl(20-O-(20S)-CPT))SESY-NH2) | 1470 | 2050 | > 100000 | 58.6 | 11100 | 45.3 | 13.3 | Toxic | fold change (FC) [6]: 90; hemolysis at 4 h, 0.3 µM [8]: 1.5%; inhibition (INH) (MDA-MB-231 [9]): <10%; hemolysis at 4 h, 30 µM [14]: < 5%; Activity (MDA-MB-231 [16]): Dose-Dependent Effect; Drug uptake [18]: Active
CCCC[C@H](NC(=O)[C@H](CC(N)=O)NC(=O)[C@H](CCCNC(=N)N)NC(=O)[C@@H](NC(=O)CNC(=O)[C@H](C)NC(=O)[C@H](CCCCN)NC(=O)[C@H](C)NC(=O)[C@H](CCCNC(=N)N)NC(=O)[C@@H](NC(=O)CNC(C)=O)C(C)C)C(C)C)C(=O)N[C@@H](Cc1ccccc1)C(=O)N[C@@H](CCCCN)C(=O)N[C@@H](CO)C(=O)N[C@@H](CCC(=O)O)C(=O)N[C@@H](CO)C(=O)N[C@@H](Cc1ccc(O)cc1)C(N)=O (Ac-GVRAKAGVRN[Nle]FKSESY-NH2) | > 100000 | > 100000 | > 100000 | 67.9 | > 100000 |  | 46.3 | Toxic | inhibition at 1.5 µM (MDA-MB-231 [19]): < 10%
CC[C@@]1(O)C(=O)OCc2c1cc1n(c2=O)Cc2cc3ccccc3nc2-1 [CAMPTOTHECIN] | 630 | 30 | 15700 | 69.2 | < 10 | 52.8 | 44.6 | Toxic | solubility [20]: 3.6 µM (≈ 1.25 µg/mL); Activity (4T1 [21]): Active; IC50 (MDA-MB-231 [22]): 720 nM; inhibition (INH) (MDA-MB-231 [23]): 50.8%; Drug uptake [24]: Active; IC50 (4T1 [25]): < 32 nM; Activity (MDA-MB-231 [26]): 37.7%; Activity (Erythrocyte [27]): Toxic; Activity (MDA-MB-231 [28]): Active; Activity (MDA-MB-231 [29]): Active
